Assay results from paper PMC10066365, “Nemacol is a small molecule inhibitor of C. elegans vesicular acetylcholine transporter with anthelmintic potential” (Nature Communications, 2023).
Values joined by “and” are separate entries in the source; they are usually repeats but may differ in a detail not shown here. Identical values can stand only once. Like-named read-outs stand apart in the source and are kept apart here.

Key:
C. elegans = C. elegans motor phenotype scoring on solid media (Punc/jerky-unc, coiled, paralyzed), wild-type young adults; type: in vivo, Caenorhabditis elegans; conditions: for atypical locomotion (number of animals) / coiled (number of animals) / no phene (number of animals) / paralyzed (number of animals) / any phene: mean % fraction of young adults exhibiting any phenotype (coiled, jerky-Unc or paralyzed) / any phene (mean % fraction of young adults exhibiting any phenotype: coiled, jerky-Unc or paralyzed) / any phene, mean % fraction of young adults exhibiting any phenotype (coiled, jerky-Unc or paralyzed): one hour; for atypical locomotion (number of animals) / coiled (number of animals) / no phene (number of animals) / paralyzed (number of animals): young adults, 20 animals per trial; for any phene: mean % fraction of young adults exhibiting any phenotype (coiled, jerky-Unc or paralyzed) / any phene (mean % fraction of young adults exhibiting any phenotype: coiled, jerky-Unc or paralyzed) / any phene, mean % fraction of young adults exhibiting any phenotype (coiled, jerky-Unc or paralyzed): mean of three biological replicates; for EC50: Caenorhabditis elegans, read-out: C. elegans - motor disruption EC50
[1] = test system: Dirofilaria immitis microfilariae; test: Dirofilaria immitis microfilariae immobility assay (DiroImager, 72 h); conditions: Dirofilaria immitis microfilariae
Summary of the method: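 About 250 freshly purified microfilariae of the Missouri isolate per well in supplemented RPMI 1640, exposed to compound for 72 h. Motility scored by automated whole-plate optical imaging; medium with 1% DMSO as negative control.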

[2] = test system: Dirofilaria immitis L3/L4; test: Dirofilaria immitis L3/L4 motility assay (DiroImager, 72 h); conditions: Dirofilaria immitis L4
Pristionchus pacificus = Pristionchus pacificus motor disruption dose-response on solid media, 1 h; conditions: for EC50: Pristionchus pacificus, 1 h, read-out: P. pacificus motor disruption EC50; for mean % any phene: any phenotype (coiled, jerky-Unc or paralyzed) at one hour; for mean % any phene / mean % any phene (coiled, jerky-Unc or paralyzed): mean of three biological replicates; for rep 1 atypical locomotion / rep 1 coiled / rep 1 no phene / rep 1 paralyzed / rep 2 atypical locomotion / rep 2 coiled / rep 2 no phene / rep 2 paralyzed / rep 3 atypical locomotion / rep 3 coiled / rep 3 no phene / rep 3 paralyzed: count of 20 animals per trial, one hour; for mean % any phene (coiled, jerky-Unc or paralyzed): Pristionchus pacificus young adults
[3] = 3.75uM, single technical replicate
[4] = 15uM, single technical replicate
[5] = 60uM, single technical replicate
[6] = any motor phenotype after 1 h on solid media, ± 95% CI
[7] = conc 3.75, observed at one hour
[8] = 3.75uM, single replicate counts

FC(F)(F)c1cccc(N2CCN(CC3CCCCC3)CC2)c1 [Nemacol-49]
atypical locomotion (number of animals) (C. elegans; [3]): 3 and 2 and 1
coiled (number of animals) (C. elegans; [3]): 0
no phene (number of animals) (C. elegans; [3]): 17 and 18 and 19
paralyzed (number of animals) (C. elegans; [3]): 0
any phene: mean % fraction of young adults exhibiting any phenotype (coiled, jerky-Unc or paralyzed) (C. elegans; 3.75uM): 9.167%
atypical locomotion (number of animals) (C. elegans; [4]): 12 and 13 and 9
coiled (number of animals) (C. elegans; [4]): 3 and 1 and 2 and 0
no phene (number of animals) (C. elegans; [4]): 5 and 7 and 10 and 8
paralyzed (number of animals) (C. elegans; [4]): 0
any phene: mean % fraction of young adults exhibiting any phenotype (coiled, jerky-Unc or paralyzed) (C. elegans; 15uM): 65%
atypical locomotion (number of animals) (C. elegans; [5]): 13 and 16 and 10 and 14 and 15
coiled (number of animals) (C. elegans; [5]): 7 and 4 and 10 and 6 and 1 and 3
no phene (number of animals) (C. elegans; [5]): 0 and 5 and 2
paralyzed (number of animals) (C. elegans; [5]): 0
any phene: mean % fraction of young adults exhibiting any phenotype (coiled, jerky-Unc or paralyzed) (C. elegans; 60uM): 94.1667%
EC50 (C. elegans; [6]): 11.2 ± 1.6 µM
% effect (motility), DIROIM MF ([1]; 0.016 µM): 0%
% effect (motility), DIROIM MF ([1]; 0.08 µM): 0%
% effect (motility), DIROIM MF ([1]; 0.4 µM): 0%
% effect (motility), DIROIM MF ([1]; 2 µM): 0%
% effect (motility), DIROIM MF ([1]; 10 µM): 0%
% effect (motility), DIROIM L4 ([2]; 10 µM): 0%
% effect (motility), DIROIM L4 ([2]; 50 µM): 10%
EC50 (Pristionchus pacificus): > 60 µM
mean % any phene (Pristionchus pacificus; conc 3.75): 0%
rep 1 atypical locomotion (Pristionchus pacificus; conc 3.75): 0
rep 1 coiled (Pristionchus pacificus; conc 3.75): 0
rep 1 no phene (Pristionchus pacificus; conc 3.75): 20
rep 1 paralyzed (Pristionchus pacificus; conc 3.75): 0
rep 2 atypical locomotion (Pristionchus pacificus; conc 3.75): 0
rep 2 coiled (Pristionchus pacificus; conc 3.75): 0
rep 2 no phene (Pristionchus pacificus; conc 3.75): 20
rep 2 paralyzed (Pristionchus pacificus; conc 3.75): 0
rep 3 atypical locomotion (Pristionchus pacificus; conc 3.75): 0
rep 3 coiled (Pristionchus pacificus; conc 3.75): 0
rep 3 no phene (Pristionchus pacificus; conc 3.75): 20
rep 3 paralyzed (Pristionchus pacificus; conc 3.75): 0
mean % any phene (Pristionchus pacificus; conc 15): 0%
rep 1 atypical locomotion (Pristionchus pacificus; conc 15): 0
rep 1 coiled (Pristionchus pacificus; conc 15): 0
rep 1 no phene (Pristionchus pacificus; conc 15): 20
rep 1 paralyzed (Pristionchus pacificus; conc 15): 0
rep 2 atypical locomotion (Pristionchus pacificus; conc 15): 0
rep 2 coiled (Pristionchus pacificus; conc 15): 0
rep 2 no phene (Pristionchus pacificus; conc 15): 20
rep 2 paralyzed (Pristionchus pacificus; conc 15): 0
rep 3 atypical locomotion (Pristionchus pacificus; conc 15): 0
rep 3 coiled (Pristionchus pacificus; conc 15): 0
rep 3 no phene (Pristionchus pacificus; conc 15): 20
rep 3 paralyzed (Pristionchus pacificus; conc 15): 0
mean % any phene (Pristionchus pacificus; conc 60): 12.5%
rep 1 atypical locomotion (Pristionchus pacificus; conc 60): 2
rep 1 coiled (Pristionchus pacificus; conc 60): 0
rep 1 no phene (Pristionchus pacificus; conc 60): 18
rep 1 paralyzed (Pristionchus pacificus; conc 60): 0
rep 2 coiled (Pristionchus pacificus; conc 60): 0
rep 2 no phene (Pristionchus pacificus; conc 60): 17 and 19
rep 2 paralyzed (Pristionchus pacificus; conc 60): 0
rep 3 atypical locomotion (Pristionchus pacificus; conc 60): 4 and 3
rep 3 coiled (Pristionchus pacificus; conc 60): 0
rep 3 no phene (Pristionchus pacificus; conc 60): 16 and 17
rep 3 paralyzed (Pristionchus pacificus; conc 60): 0

Fc1ccccc1N1CCN(C2CCCCCC2)CC1 [Nemacol-56]
atypical locomotion (number of animals) (C. elegans; [3]): 2 and 3 and 12 and 10
coiled (number of animals) (C. elegans; [3]): 0
no phene (number of animals) (C. elegans; [3]): 18 and 17 and 8 and 10
paralyzed (number of animals) (C. elegans; [3]): 0
any phene: mean % fraction of young adults exhibiting any phenotype (coiled, jerky-Unc or paralyzed) (C. elegans; 3.75uM): 25.8333%
atypical locomotion (number of animals) (C. elegans; [4]): 12 and 18 and 7 and 14 and 16
coiled (number of animals) (C. elegans; [4]): 0 and 2
no phene (number of animals) (C. elegans; [4]): 8 and 2 and 13 and 4
paralyzed (number of animals) (C. elegans; [4]): 0 and 2
any phene: mean % fraction of young adults exhibiting any phenotype (coiled, jerky-Unc or paralyzed) (C. elegans; 15uM): 69.1667%
atypical locomotion (number of animals) (C. elegans; [5]): 2 and 3 and 10 and 0
coiled (number of animals) (C. elegans; [5]): 5 and 6 and 4 and 3 and 8
no phene (number of animals) (C. elegans; [5]): 0
paralyzed (number of animals) (C. elegans; [5]): 13 and 11 and 6 and 14 and 15 and 12
any phene: mean % fraction of young adults exhibiting any phenotype (coiled, jerky-Unc or paralyzed) (C. elegans; 60uM): 100%
EC50 (C. elegans; [6]): 8 ± 3.3 µM
% effect (motility), DIROIM MF ([1]; 0.016 µM): 0%
% effect (motility), DIROIM MF ([1]; 0.08 µM): 0%
% effect (motility), DIROIM MF ([1]; 0.4 µM): 0%
% effect (motility), DIROIM MF ([1]; 2 µM): 0%
% effect (motility), DIROIM MF ([1]; 10 µM): 0%
% effect (motility), DIROIM L4 ([2]; 10 µM): 0%
% effect (motility), DIROIM L4 ([2]; 50 µM): 15%
EC50 (Pristionchus pacificus): 38.4 ± 4.7 µM
mean % any phene (Pristionchus pacificus; conc 3.75): 2.5%
rep 1 no phene (Pristionchus pacificus; conc 3.75): 20 and 18
rep 1 paralyzed (Pristionchus pacificus; conc 3.75): 0
rep 2 atypical locomotion (Pristionchus pacificus; conc 3.75): 0
rep 2 coiled (Pristionchus pacificus; conc 3.75): 0
rep 2 no phene (Pristionchus pacificus; conc 3.75): 20
rep 2 paralyzed (Pristionchus pacificus; conc 3.75): 0
rep 3 atypical locomotion (Pristionchus pacificus; conc 3.75): 0
rep 3 no phene (Pristionchus pacificus; conc 3.75): 20 and 19
rep 3 paralyzed (Pristionchus pacificus; conc 3.75): 0
mean % any phene (Pristionchus pacificus; conc 15): 0.8333%
rep 1 atypical locomotion (Pristionchus pacificus; conc 15): 0
rep 1 coiled (Pristionchus pacificus; conc 15): 0
rep 1 no phene (Pristionchus pacificus; conc 15): 20
rep 1 paralyzed (Pristionchus pacificus; conc 15): 0
rep 2 coiled (Pristionchus pacificus; conc 15): 0
rep 2 no phene (Pristionchus pacificus; conc 15): 19 and 20
rep 2 paralyzed (Pristionchus pacificus; conc 15): 0
rep 3 atypical locomotion (Pristionchus pacificus; conc 15): 0
rep 3 coiled (Pristionchus pacificus; conc 15): 0
rep 3 no phene (Pristionchus pacificus; conc 15): 20
rep 3 paralyzed (Pristionchus pacificus; conc 15): 0
mean % any phene (Pristionchus pacificus; conc 60): 85%
rep 1 atypical locomotion (Pristionchus pacificus; conc 60): 10
rep 1 coiled (Pristionchus pacificus; conc 60): 4 and 2
rep 1 no phene (Pristionchus pacificus; conc 60): 2
rep 1 paralyzed (Pristionchus pacificus; conc 60): 4 and 6
rep 2 no phene (Pristionchus pacificus; conc 60): 5 and 3
rep 3 atypical locomotion (Pristionchus pacificus; conc 60): 14 and 13
rep 3 coiled (Pristionchus pacificus; conc 60): 3 and 4
rep 3 no phene (Pristionchus pacificus; conc 60): 3
rep 3 paralyzed (Pristionchus pacificus; conc 60): 0

O=[N+]([O-])c1ccc(N2CCN(C3CCCCCCC3)CC2)cc1 [Nemacol-21]
any phene (mean % fraction of young adults exhibiting any phenotype: coiled, jerky-Unc or paralyzed) (C. elegans; 3.75uM, third c14 line of each analog): 3.333%
any phene (mean % fraction of young adults exhibiting any phenotype: coiled, jerky-Unc or paralyzed) (C. elegans; 15uM, second c14 line of each analog): 17.5%
EC50 (C. elegans; [6]): 19.6 ± 37.4 µM
% effect (motility), DIROIM MF ([1]; 0.016 µM): 0%
% effect (motility), DIROIM MF ([1]; 0.08 µM): 0%
% effect (motility), DIROIM MF ([1]; 0.4 µM): 0%
% effect (motility), DIROIM MF ([1]; 2 µM): 0%
% effect (motility), DIROIM MF ([1]; 10 µM): 0%
% effect (motility), DIROIM L4 ([2]; 10 µM): 0%
% effect (motility), DIROIM L4 ([2]; 50 µM): 0%
mean % any phene (coiled, jerky-Unc or paralyzed) (Pristionchus pacificus; [7]): 0.8333%
mean % any phene (coiled, jerky-Unc or paralyzed) (Pristionchus pacificus; conc 15, observed at one hour): 6.667%
mean % any phene (coiled, jerky-Unc or paralyzed) (Pristionchus pacificus; conc 60, observed at one hour): 50%
EC50 (Pristionchus pacificus): 60 ± 10.2 µM

CN1CCN(c2ccc([N+](=O)[O-])cc2)CC1 [Nemacol-7]
any phene, mean % fraction of young adults exhibiting any phenotype (coiled, jerky-Unc or paralyzed) (C. elegans; 3.75uM): 0%
atypical locomotion (number of animals) (C. elegans; [8]): 0
coiled (number of animals) (C. elegans; [8]): 0
no phene (number of animals) (C. elegans; [8]): 20
paralyzed (number of animals) (C. elegans; [8]): 0
any phene, mean % fraction of young adults exhibiting any phenotype (coiled, jerky-Unc or paralyzed) (C. elegans; 15uM): 3.333%
atypical locomotion (number of animals) (C. elegans; 15uM, single replicate counts): 0 and 1 and 2
coiled (number of animals) (C. elegans; 15uM, single replicate counts): 0
no phene (number of animals) (C. elegans; 15uM, single replicate counts): 20 and 19 and 18
paralyzed (number of animals) (C. elegans; 15uM, single replicate counts): 0
any phene, mean % fraction of young adults exhibiting any phenotype (coiled, jerky-Unc or paralyzed) (C. elegans; 60uM): 14.1667%
atypical locomotion (number of animals) (C. elegans; 60uM, single replicate counts): 1 and 2 and 0 and 4 and 8
coiled (number of animals) (C. elegans; 60uM, single replicate counts): 0
no phene (number of animals) (C. elegans; 60uM, single replicate counts): 19 and 18 and 20 and 16 and 12
paralyzed (number of animals) (C. elegans; 60uM, single replicate counts): 0
EC50 (C. elegans; 1 h): > 60 µM
% effect (motility), DIROIM MF ([1]; 0.016 µM): 0%
% effect (motility), DIROIM MF ([1]; 0.08 µM): 0%
% effect (motility), DIROIM MF ([1]; 0.4 µM): 0%
% effect (motility), DIROIM MF ([1]; 2 µM): 0%
% effect (motility), DIROIM MF ([1]; 10 µM): 0%
% effect (motility), DIROIM L4 ([2]; 2 µM): 5%
% effect (motility), DIROIM L4 ([2]; 10 µM): 5%
% effect (motility), DIROIM L4 ([2]; 50 µM): 10%
mean % any phene (coiled, jerky-Unc or paralyzed) (Pristionchus pacificus; [7]): 1.667%
mean % any phene (coiled, jerky-Unc or paralyzed) (Pristionchus pacificus; conc 15, observed at one hour): 5%
mean % any phene (coiled, jerky-Unc or paralyzed) (Pristionchus pacificus; conc 60, observed at one hour): 41.6667%
EC50 (Pristionchus pacificus): > 60 µM
